From patent US10444244B2, “Microfluidic array supporting a lipid bilayer assembly” (DUBLIN CITY UNIVERSITY, priority 2014, dated 2019)

Tests used:
[1] = EIS of DOPC bilayer with K+/H+ gradient after Nigericin incorporation; type: physicochemical; conditions: 20 μM from ethanol solution; cavities 150 mM K+, outside citrate buffer pH 4, H+ 10 mMol
Procedure: (§1) Gold microcavity electrodes were formed through the method described herein using electrodeposition of gold through a close packed array of polystyrene spheres (2.88 micron in diameter) after which the spheres where removed by sonication in THF for 30 minutes. The gold microcavity array was then modified with mercaptoethanol (ME) by placing the substrate in a 1 mM solution of ME, in ethanol, for 24 hours. Alternatively it is possible to selectively modify the top surface with mercaptonexanol before removal of the spheres and leave the cavities free of surface modification after sphere removal. This latter approach gives even greater reproducibility.
Nigericin is an antiporter of H+ and K+, Herein, the cavities where prefilled with 150 mM K+ before bilayer formation. Citrate buffer (at pH 4) was then added to the electrolyte to supply the system with H+(10 mMol) ions on the outside of the bilayer. The impedance of the DOPC bilayer was measured in the presence of this ionic gradient.

[2] = EIS of DOPC bilayer with K+/Na+ ion gradient after Valinomycin incorporation; type: physicochemical; conditions: 20 μM from ethanol solution; cavities Tris KCl, contacting solution Tris NaCl
Procedure: as §1
After sonication a DOPC bilayer was formed over the micro-cavities using a combination of Langmuir-Blodgett and vesicle fusion as described above.
Electrochemical impedance spectra (EIS) of this bilayer were measured by placing the array in contact with Tris NaCl. This creates an ion gradient across the lipid bilayer. The bilayer, effectively insulates the pore from the external contacting solution but once Valinomycin is introduced this should cause K+ ions to flow from inside the cavities into the bulk solution (see schematic in FIG. 18). The impedance of the DOPC bilayer was measured in the presence of this ionic gradient. Valinomycin was then introduced into the cell by adding 20 μM from an ethanol solution. […]

[3] = FLCS/FCS of labelled lipid diffusion in DOPC bilayer over buffer-filled PDMS cavity array after drug addition; type: physicochemical; conditions: for impact on diffusion of the lipophilic BODIPY-HPC probe: PBS pH 7.4, 15 mins incubation, ibuprofen 4-200 μmol, diclofenac 4-800 μmol
Procedure: The lower dye concentration is required for FLCS experiments.
FLCS measurements were recorded over cavities as well as flat PDMS surfaces to obtain the autocorrelation functions for each surface. […] The autocorrelation curves obtained were fit to the 2-dimensional model described in equation 1 to obtain the lateral diffusion co-efficient of the lipids in the bilayer.
where, G(τ) is the autocorrelation function, N is the average number of fluorescent molecules present in the confocal volume, τi is the characteristic residence time, and α is the anomalous parameter which reflects the extent of deviation of diffusion from normal or Brownian motion where α=1, i is the index of the components. The lateral diffusion coefficient, DL, can be obtained as DL=ω^2/4τi. In this equation, ω is the radius of the laser beam used. To determine ω for each excitation, a reference solution of free dye was used for which the diffusion coefficient is known.
The probe is BODIPY labelled DOPE at 1% mol/mol lipid.
Monitoring the diffusion of each probe permitted assessment of interaction of the drug with the membrane and where this interactions occurred; i.e. did it bind to the interface or intercalate in the bilayer? Only a single probe is necessary in most instances, however depending on the sophistication of the FCS instrument two labels can be used in a single two colour experiment or they can be applied in separate experiments to yield detailed insights into the location of the drug at the membrane.

[4] = for decrease in resistivity of DOPC bilayer: between 0 and 400 umol drug, PBS buffer pH 7.4 on both sides of the pore
Procedure: A gold microcavity electrode is first modified with 2-mercaptoethanol by immersing them in a 1 mM solution in ethanol overnight after which they are sonicated in Tris buffer for 30 munities to pre fill the cavities (in the gold electrode or substrate). A DOPC monolayer is then deposited onto the microcavity electrode using a Langmuir-Blödgett deposition of monolayer followed by DOPC disruption at this monolayer to form a bilayer.
Measurements are performed with a potential of 0 V and a frequency range of 0.01 Hz to 100000 Hz with a standard 3 electrode set up with an Ag/AgCl reference electrode. All experiments are performed in Tris NaCl buffer with the cell contained inside a Faraday cage.
Electrochemical Impedance Spectroscopy (EIS) is highly sensitive to changes in the bilayer and this sensitivity can be enhanced by using an electrochemical probe such as ferrocyanide in the contacting solution (i.e., solution contacting the outer surface of the array) or in applying an ionic gradient across the membrane by applying slightly different pH or ionic strength at the solution at each side of the membrane e.g., by pre-filling the cavities with a different ionic strength solution to that contacting solution which will operably be in contact with the top leaflet of the bilayer (i.e. away from the cavity). Within this context the inner membrane leaflet refers to the lipid layer closest to the cavities and the outer leaflet is that the lipid layer pointed away from the cavities and operably in contact with the contacting solution that is introduced into the inlet and out through the outlet of the microfluidic platform.
The experiment was carried out in PBS buffer at pH 7.4 at room temperature with cavities filled with same buffer solution. A microfluidic platform having an inlet and outlet (similar to the platform of FIG. 2) is used to introduce the ibuprofen to the bilayer.
The bilayers are stable to introduction of several volumes of buffer at the end of a study and we were able to monitor for reversibility of binding.

[5] = Electrorelease of CD from cavity to cholesterol containing bilayer, bilayer resistance; type: physicochemical
Excerpt: As an example. Mercaptoferrocene was self-assembled only at the inner cavity surface and a blocking thiolated alcohol (mercaptoethanol or mercaptohexanol) was assembled at the top surface of the array, by modification of the top surface of the array prior to release of the templating sphere and then adhering the ferrocene after sphere removal. The ferrocene binds selectively to streptavidin modified beta-cyclodextrin (CD-streptavidin) which is assembled prior to assembly of the DOPC/DOPC biotinylated bilayer. Application of 0.5 V vs Ag/AgCl results in oxidation of the ferrocene, which in the presence of Na+ acquires a permanent positive charge, preventing reassembly of the CD-streptavidin. The released CD-streptavidin diffuses to the bilayer where its streptavidin pendant recognises and binds to biotin. Such electrorelease can be combined with EIS to allow for the detection of interaction of released agent with the bilayer, and/or it can also be combined with spectroscopic methods, such as Raman and fluorescence spectroscopy for further investigation. […] In principle, the quantity of cholesterol removed can be controlled by altering the quantity of CD at the cavity through use of a mixed monolayer

[6] = DOPC bilayer, 2.8 um PDMS pores

CO[C@@H]1C[C@@H](C[C@H]2CC[C@H](C)[C@H]([C@@H](C)C(=O)O)O2)O[C@]2(O[C@](C)([C@H]3CC[C@@](C)([C@@H]4O[C@@H]([C@H]5O[C@@](O)(CO)[C@H](C)C[C@@H]5C)C[C@@H]4C)O3)C[C@H]2C)[C@@H]1C [Nigericin]
change of bilayer resistance after ionophore incorporation [1]: a decrease in the resistance was observed

CC(C)[C@@H]1NC(=O)[C@H](C)OC(=O)[C@@H](C(C)C)NC(=O)[C@@H](C(C)C)OC(=O)[C@H](C(C)C)NC(=O)[C@H](C)OC(=O)[C@@H](C(C)C)NC(=O)[C@@H](C(C)C)OC(=O)[C@H](C(C)C)NC(=O)[C@H](C)OC(=O)[C@@H](C(C)C)NC(=O)[C@@H](C(C)C)OC1=O [Valinomycin]
change of bilayer resistance after ionophore incorporation [2]: a decrease in the resistance was observed

O=C(O)Cc1ccccc1Nc1c(Cl)cccc1Cl [diclofenac]
diffusion coefficient of Atto-655 labelled DOPE ([3]; 800 μmol diclofenac, DOPC bilayer, PBS pH 7.4, at 0 drug 11.71±0.82): 43.5±8.13 μm^2 s^−1
impact on diffusion of the lipophilic BODIPY-HPC probe [3, 6]: little effect
decrease in resistivity of DOPC bilayer [4]: 65%

CC(C)Cc1ccc(C(C)C(=O)O)cc1 (stereo not drawn) [ibuprofen]
diffusion coefficient of the ATTO probe (DOPE-ATTO655) ([3]; 100 μmol of ibuprofen, DOPC bilayer, PBS pH 7.4, without drug 10.37±0.72): 12.05±0.6 μm^2 s^−1
impact on diffusion of the lipophilic BODIPY-HPC probe [3, 6]: little impact
membrane lipid diffusion coefficient after exposure of the bilayer ([3]; ibuprofen 4 mMol, DOPC bilayer with 1% mol/mol BODIPY labelled DOPE, 2.8 um PDMS pores, PBS pH 7.4, room temperature, without drug approximately 7): approximately 9.5 μms^−1
decrease in resistivity of DOPC bilayer [4]: roughly 6%
effect on capacitance of the layer ([4]; ibuprofen at 4 and then 8 mMol, 2.8 μm gold cavity arrays, PBS pH 7.4): initially in a decrease followed by a substantial increase in capacitance
effect on impedance of the bilayer at equilibrium ([4]; ibuprofen at 4 and then 8 mMol, 2.8 μm gold cavity arrays, PBS pH 7.4, room temperature, ferrocyanide redox probe): decrease in impedance

OC[C@H]1O[C@@H]2O[C@H]3[C@H](O)[C@@H](O)[C@@H](O[C@H]4[C@H](O)[C@@H](O)[C@@H](O[C@H]5[C@H](O)[C@@H](O)[C@@H](O[C@H]6[C@H](O)[C@@H](O)[C@@H](O[C@H]7[C@H](O)[C@@H](O)[C@@H](O[C@H]8[C@H](O)[C@@H](O)[C@@H](O[C@H]1[C@H](O)[C@H]2O)O[C@@H]8CO)O[C@@H]7CO)O[C@@H]6CO)O[C@@H]5CO)O[C@@H]4CO)O[C@@H]3CO [unlabeled CD, beta-cyclodextrin]
effect of electroreleased agent on cholesterol containing bilayer [5]: removal of cholesterol from the bilayer, reflected in a decrease in resistance of the bilayer film
